Experimental data reported in PubChem BioAssay (NCI).
Where “and” joins values, the source holds several entries; their conditions need not be identical. Equal values may be shown once.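 Protocol summary: plate cells (96-well), add compound at 5 concentrations, incubate 48 h, interpolate endpoints linearly. The concentration for 50% growth inhibition is given as GI50. At the TGI there is no net growth.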

Assays:
Assay in all cases: NCI tumour cell line growth inhibition, 48 h
A498 renal = tested on: A498 renal
A549 NSCLC = tested on: A549 NSCLC
ACHN renal = tested on: ACHN renal
BT-549 breast = tested on: BT-549 breast
CAKI-1 renal = tested on: CAKI-1 renal
CCRF-CEM leukemia = tested on: CCRF-CEM leukemia
COLO 205 colon = tested on: COLO 205 colon
DLD-1 colon = tested on: DLD-1 colon
DMS 114 small cell lung = tested on: DMS 114 small cell lung
DMS 273 small cell lung = tested on: DMS 273 small cell lung
DU-145 prostate = tested on: DU-145 prostate
EKVX NSCLC = tested on: EKVX NSCLC
HCC-2998 colon = tested on: HCC-2998 colon
HCT-116 colon = tested on: HCT-116 colon
HCT-15 colon = tested on: HCT-15 colon
HL-60(TB) leukemia = tested on: HL-60(TB) leukemia
HOP-18 NSCLC = tested on: HOP-18 NSCLC
HOP-62 NSCLC = tested on: HOP-62 NSCLC
HOP-92 NSCLC = tested on: HOP-92 NSCLC
HT29 colon = tested on: HT29 colon
IGROV1 ovarian = tested on: IGROV1 ovarian
K-562 leukemia = tested on: K-562 leukemia
KM12 colon = tested on: KM12 colon
KM20L2 colon = tested on: KM20L2 colon
LOX IMVI melanoma = tested on: LOX IMVI melanoma
M14 melanoma = tested on: M14 melanoma
M19-MEL melanoma = tested on: M19-MEL melanoma
MALME-3M melanoma = tested on: MALME-3M melanoma
MCF7 breast = tested on: MCF7 breast
MDA-MB-435 = tested on: MDA-MB-435
MDA-N = tested on: MDA-N
MOLT-4 leukemia = tested on: MOLT-4 leukemia
NCI-H226 lung = tested on: NCI-H226 lung
NCI-H23 lung = tested on: NCI-H23 lung
NCI-H460 lung = tested on: NCI-H460 lung
NCI-H522 lung = tested on: NCI-H522 lung
NCI/ADR-RES ovarian = tested on: NCI/ADR-RES ovarian
OVCAR-3 ovarian = tested on: OVCAR-3 ovarian
OVCAR-4 ovarian = tested on: OVCAR-4 ovarian
OVCAR-5 ovarian = tested on: OVCAR-5 ovarian
OVCAR-8 ovarian = tested on: OVCAR-8 ovarian
P388 leukemia = tested on: P388 leukemia
P388/ADR leukemia = tested on: P388/ADR leukemia
PC-3 prostate = tested on: PC-3 prostate
RPMI-8226 leukemia = tested on: RPMI-8226 leukemia
RXF 393 renal = tested on: RXF 393 renal
SF-268 CNS = tested on: SF-268 CNS
SF-295 CNS = tested on: SF-295 CNS
SF-539 CNS = tested on: SF-539 CNS
SK-MEL-2 melanoma = tested on: SK-MEL-2 melanoma
SK-MEL-28 melanoma = tested on: SK-MEL-28 melanoma
SK-MEL-5 melanoma = tested on: SK-MEL-5 melanoma
SK-OV-3 ovarian = tested on: SK-OV-3 ovarian
SN12C renal = tested on: SN12C renal
SN12K1 renal = tested on: SN12K1 renal
SNB-19 CNS = tested on: SNB-19 CNS
SNB-75 CNS = tested on: SNB-75 CNS
SR leukemia = tested on: SR leukemia
SW-620 colon = tested on: SW-620 colon
T-47D breast = tested on: T-47D breast
TK-10 renal = tested on: TK-10 renal
U251 CNS = tested on: U251 CNS
UACC-257 melanoma = tested on: UACC-257 melanoma
UACC-62 melanoma = tested on: UACC-62 melanoma
UO-31 renal = tested on: UO-31 renal
XF 498 CNS = tested on: XF 498 CNS

For `Cc1c2cc[n+](C)cc2c(C)c2c1[nH]c1ccccc12`, the TGI (A498 renal) was 68.7 µM and 53.5 µM, the TGI (A549 NSCLC) was 5.55 µM and 8.83 µM and the TGI (ACHN renal) was > 100 µM. The TGI (BT-549 breast) was 8.07 µM, the TGI (CAKI-1 renal) was 58.8 µM and 27.7 µM and the TGI (CCRF-CEM leukemia) was 41.9 µM and 35.3 µM. For the same compound, the TGI (COLO 205 colon) was 4.57 µM and 3.37 µM, the TGI (DLD-1 colon) was > 100 µM and 76.9 µM and the TGI (DMS 114 small cell lung) was 1.88 µM and 1.99 µM. For the same compound, the TGI (DMS 273 small cell lung) was 12.3 µM and 14.2 µM, the TGI (DU-145 prostate) was 24.9 µM and the TGI (EKVX NSCLC) was 11.1 µM and 14 µM. The TGI (HCC-2998 colon) was 12.6 µM and 12.9 µM, the TGI (HCT-116 colon) was 35.2 µM and 33.6 µM and the GI50 (HCT-15 colon) was 88 µM and 19.4 µM. The TGI (HCT-15 colon) was > 100 µM and 99 µM, the TGI (HL-60(TB) leukemia) was 66.9 µM and 63.5 µM and the GI50 (HOP-18 NSCLC) was 5.47 µM. For the same compound, the TGI (HOP-18 NSCLC) was 21.3 µM and 32 µM, the TGI (HOP-62 NSCLC) was 2.64 µM and 2.76 µM and the TGI (HOP-92 NSCLC) was 11 µM and 10.1 µM. For the same compound, the TGI (HT29 colon) was 62.7 µM and 71.6 µM, the TGI (IGROV1 ovarian) was 78.1 µM and 75.3 µM and the TGI (K-562 leukemia) was 43.1 µM and 40.2 µM. For the same compound, the TGI (KM12 colon) was 12.1 µM, the GI50 (KM20L2 colon) was 4.95 µM and 2.34 µM and the TGI (KM20L2 colon) was 33.4 µM and 19.9 µM. For the same compound, the TGI (LOX IMVI melanoma) was 48.3 µM and 27.4 µM, the TGI (M14 melanoma) was > 100 µM and the TGI (M19-MEL melanoma) was 3.34 µM and 2.32 µM. For the same compound, the TGI (MALME-3M melanoma) was 3.24 µM and 4.03 µM, the TGI (MCF7 breast) was 21.9 µM and 39.5 µM and the TGI (MDA-MB-435) was > 100 µM. For the same compound, the TGI (MDA-N) was 19.6 µM, the TGI (MOLT-4 leukemia) was 56.6 µM and 30.2 µM and the TGI (NCI-H226 lung) was 1.7 µM and 1.61 µM. For the same compound, the TGI (NCI-H23 lung) was 4.8 µM and 6.39 µM, the TGI (NCI-H460 lung) was 12.3 µM and 11.8 µM and the TGI (NCI-H522 lung) was 3.6 µM and 3.45 µM. For the same compound, the GI50 (NCI/ADR-RES ovarian) was 48 µM and 15 µM, the TGI (NCI/ADR-RES ovarian) was > 100 µM and the TGI (OVCAR-3 ovarian) was 19.7 µM and 21.3 µM. For the same compound, the TGI (OVCAR-4 ovarian) was 15 µM and 10.9 µM, the TGI (OVCAR-5 ovarian) was 56.6 µM and 61.1 µM and the TGI (OVCAR-8 ovarian) was 27.4 µM and 18.1 µM. For the same compound, the TGI (P388 leukemia) was 24.5 µM and 22.2 µM, the TGI (P388/ADR leukemia) was > 77.4 µM and the TGI (PC-3 prostate) was > 100 µM. For the same compound, the TGI (RPMI-8226 leukemia) was 88.7 µM and 92 µM, the TGI (RXF 393 renal) was 62 µM and 36.7 µM and the TGI (SF-268 CNS) was 1.87 µM and 1.88 µM. The TGI (SF-295 CNS) was 1.71 µM and 2.08 µM, the TGI (SF-539 CNS) was 2.85 µM and 2.93 µM and the TGI (SK-MEL-2 melanoma) was 2.85 µM and 3.5 µM. For the same compound, the TGI (SK-MEL-28 melanoma) was 4.83 µM and 7.1 µM, the TGI (SK-MEL-5 melanoma) was 5.92 µM and 4.85 µM and the TGI (SK-OV-3 ovarian) was 64.7 µM and 64.2 µM. For the same compound, the TGI (SN12C renal) was 1.29 µM and 1.2 µM, the TGI (SN12K1 renal) was 4.3 µM and 4.19 µM and the TGI (SNB-19 CNS) was 1.09 µM and 1.3 µM. For the same compound, the TGI (SNB-75 CNS) was 0.755 µM and 0.779 µM, the TGI (SR leukemia) was > 100 µM and the TGI (SW-620 colon) was 54.6 µM and 47.5 µM. For the same compound, the TGI (T-47D breast) was 0.832 µM, the TGI (TK-10 renal) was > 100 µM and the TGI (U251 CNS) was 1.94 µM and 2.74 µM. The TGI (UACC-257 melanoma) was 37.5 µM and 43.2 µM, the TGI (UACC-62 melanoma) was 22.5 µM and 27.4 µM and the TGI (UO-31 renal) was > 93.4 µM and 68.7 µM. For the same compound, the GI50 (XF 498 CNS) was 0.856 µM and the TGI (XF 498 CNS) was 5.09 µM and 2.45 µM.
